Source: patent US5552520A, “Therapeutic peptide derivatives” (Biomeasure, Inc., priority 1994, dated 1996)
Numbered stars: 1 amine (or outer) side, 2 acyl side, 3 side chain; on linkers, the order of the positions; unused ones are H or OH. Bridge positions count the residues as written; N and C are the ends. Square brackets hold non-standard residues; d marks the D form. Peptide text beside a SMILES is read from it. * marks the point of attachment. X1 = O=C1O[C@H]([C@@H](O)CO)C(OCC(=O)*)=C1OCC(O)CO; 2Nal = N[C@@H](Cc1ccc2ccccc2c1)C(=O)O; Suc = O=C(CCC(=O)[*:2])[*:1]; NHC(CH2OH)3 = OCC(CO)(CO)N*

Legend:
[1] = system: AR42J rat pancreas tumor cells; experiment: Antiproliferative assay on AR42J cells; format: cell-based; details: Concentration 100 nM, AR42J Rat Pancreas Tumor Cells after 8 days
Description: The purified somatostatin analogs described above were also tested for activity against rapidly proliferating cells.
^1 Concentration 100 nM, AR42J Rat Pancreas Tumor Cells after 8 days.

[2] = system: AR42J rat pancreas tumor cells; experiment: Antiproliferative assay on AR42J cells; format: cell-based; details: growth curves, concentration dependence
somatostatin receptor = molecular target: T1, somatostatin receptor (Rattus norvegicus, UniProt P30680); experiment: Somatostatin binding assay: in vitro inhibition of binding of [125I-Tyr11]SRIF-14 to rat AR42J pancreas membranes; details: inhibition of [125I-Tyr11]SRIF-14 binding, read-out: IC50, in vitro binding affinity
T1 construct: SRIF-14 to rat AR42J pancreas membranes; endogenous in cells; host or cells: rat AR42J pancreatic cells (membrane preparation)

[3] = system: stimulated growth hormone release; experiment: Growth Hormone (GH) Inhibition Assay in rats (D-Ala2-GRF stimulated GH); format: in vivo, male Sprague Dawley rats; details: s.c., 25 μg/kg
Description: Groups of five male Sprague Dawley rats (each having a weight between 250-300 g) were injected s.c. with a somatostatin derivative or saline. Thirty minutes prior to the selected post-drug time periods shown in table II (2 hours, 4 hours, 6 hours, 8 hours), rats were anesthetized with Nembutal i.p. (50 mg/kg). Fifteen minutes following anesthesia, an aliquot of blood was withdrawn by cardiac puncture over heparin to measure basal GH. Additionally, a s.c. injection of D-Ala^2 -GRF (10 μg/kg) was given. Fifteen minutes later, blood was withdrawn to quantitate the stimulated GH, which was measured in plasma using a radioimmunoassay supplied by NIADDKD. The percentage of GH inhibition was calculated from differences obtained between basal and stimulated GH values.
The efficacy of D-Phe-c[Cys-Tyr-D-Trp-Lys-Thr-Cys]-Nal-NH2 (SEQ ID NO. 113) (BIM-23060) in inhibiting growth hormone in rats is compared with other somatostatin derivatives (BIM-23167, BIM-23179, and BIM-23181) of the invention.
Additional experiments were conducted on D-Phe-c[Cys-Tyr-D-Trp-Lys-Abu-Cys]-Thr-NH2, (SEQ ID NO. 112) a somatostatin analog, and BIM-23190, BIM-23195 and BIM-23197, to determine the ED50 (i.e., the concentration of each compound required to inhibit fifty percent of growth hormone release after a specified time) of the respective compound. Experiments were conducted at a dose range of between 25 μg/kg and 0.25 μg/kg.

T1 sequence (P30680 whole entry): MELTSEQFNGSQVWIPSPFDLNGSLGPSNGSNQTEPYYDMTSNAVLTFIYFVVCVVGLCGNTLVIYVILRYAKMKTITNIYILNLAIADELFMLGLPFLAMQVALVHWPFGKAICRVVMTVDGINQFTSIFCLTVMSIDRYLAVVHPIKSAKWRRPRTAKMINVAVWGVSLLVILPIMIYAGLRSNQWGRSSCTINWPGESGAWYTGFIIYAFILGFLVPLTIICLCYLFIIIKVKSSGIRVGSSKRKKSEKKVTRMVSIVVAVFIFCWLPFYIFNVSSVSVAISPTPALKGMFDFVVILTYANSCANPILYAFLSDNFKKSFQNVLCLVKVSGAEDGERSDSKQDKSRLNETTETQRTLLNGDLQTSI

Compound	Cell growth (percent of control) [1]	Inhibition of growth of AR42J cells (FIG. 1), in words [2]	IC50 (somatostatin receptor)	Inhibition of stimulated growth hormone release (percentile control) ([3]; 2 Hours)	Inhibition of stimulated growth hormone release (percentile control) ([3]; 4 Hours)	Inhibition of stimulated growth hormone release (percentile control) ([3]; 6 Hours)	Inhibition of stimulated growth hormone release (percentile control) ([3]; 8 Hours)
CC(C)[C@@H]1NC(=O)[C@H](CCCCN)NC(=O)[C@@H](Cc2c[nH]c3ccccc23)NC(=O)[C@H](Cc2ccc(O)cc2)NC(=O)[C@@H](NC(=O)[C@@H](Cc2ccc3ccccc3c2)NC(=O)CCCOC2=C(O)C(=O)O[C@@H]2[C@@H](O)CO)CSSC[C@@H](C(=O)N[C@H](C(N)=O)[C@@H](C)O)NC1=O [BIM-23118]	61.0% of control	the more effective of the two compounds	–	–	–	–	–
C[C@@H](O)[C@@H]1NC(=O)[C@H](CCCCN)NC(=O)[C@@H](Cc2c[nH]c3ccccc23)NC(=O)[C@H](Cc2ccc(O)cc2)NC(=O)[C@@H](NC(=O)[C@@H](Cc2ccccc2)NC(=O)CCC(=O)NC(CO)(CO)CO)CSSC[C@@H](C(=O)N[C@@H](Cc2ccc3ccccc3c2)C(N)=O)NC1=O [BIM-23167, (HO-CH2)3 -C-NH-CO-(CH2)2 -CO-D-Phe-c[Cys-Tyr-D-Trp-Lys-Thr-Cys]-Nal-NH2] ({NHC(CH2OH)3-Suc}-[dF]CY[dW]KTC[2Nal]-NH2; disulfide 2-7)	60.2% of control	–	0.09 nM	92.67 percentile control	79.54 percentile control	59.72 percentile control	50.14 percentile control
C[C@@H](O)[C@@H]1NC(=O)[C@H](CCCCN)NC(=O)[C@@H](Cc2c[nH]c3ccccc23)NC(=O)[C@H](Cc2ccc(O)cc2)NC(=O)[C@@H](NC(=O)[C@@H](Cc2ccccc2)NC(=O)COC2=C(OCC(O)CO)C(=O)O[C@@H]2[C@@H](O)CO)CSSC[C@@H](C(=O)N[C@@H](Cc2ccc3ccccc3c2)C(N)=O)NC1=O (stereo partly drawn) [BIM-23181] (X1-[dF]CY[dW]KTC[2Nal]-NH2; disulfide 2-7)	69.1% of control	–	–	99.24 percentile control	77.07 percentile control	60.56 percentile control	56.12 percentile control
D-Nal-c[Cys-Tyr-D-Trp-Lys-Val-Cys]-Thr-NH2 [BIM-23014C, reference compound]	74.1% of control	inhibit the growth of AR42J rat pancreas tumor cells in a concentration-dependent fashion	–	–	–	–	–
